Measured values as given in the NIST ThermoML archive (doi:10.1021/je4009415).

Tests used:
[1] = Liquid; for mass density: Vibrating tube method; for vapor or sublimation pressure: Ebulliometric method (Recirculating still)
[2] = refractive index (Na D-line) (dimensionless); conditions: 298.15 K; 101.33 kPa; Liquid; Standard Abbe refractometry
[3] = xn = mol fraction of the nth substance listed; conditions: Liquid, Vibrating tube method

CCOC(=O)CC [ethyl propanoate]
[1]
Conditions	mass density [kg/m3]	vapor or sublimation pressure [kPa]
288.15 K	895.58	–
298.15 K	884.15	–
308.15 K	872.62	–
318.15 K	861.08	–
328.15 K	849.41	–
348.07 K	–	45
349.55 K	–	47.5
350.96 K	–	50
352.34 K	–	52.5
353.66 K	–	55
354.91 K	–	57.5
356.15 K	–	60
357.32 K	–	62.5
358.48 K	–	65
359.57 K	–	67.5
360.66 K	–	70
361.72 K	–	72.5
362.74 K	–	75
363.71 K	–	77.5
364.69 K	–	80
365.63 K	–	82.5
366.55 K	–	85
367.47 K	–	87.5
368.35 K	–	90
369.21 K	–	92.5
370.06 K	–	95
370.87 K	–	97.5
371.73 K	–	100
372.09 K	–	101.32
372.18 K	–	101.32
373.31 K	–	105
374.84 K	–	110
376.29 K	–	115
377.7 K	–	120
379.08 K	–	125
380.4 K	–	130
381.67 K	–	135
382.91 K	–	140
384.15 K	–	145
385.32 K	–	150
386.47 K	–	155
387.6 K	–	160
388.69 K	–	165
389.77 K	–	170
390.81 K	–	175
391.83 K	–	180
392.85 K	–	185
393.81 K	–	190
394.77 K	–	195
395.72 K	–	200
396.64 K	–	205
397.55 K	–	210
398.43 K	–	215
399.31 K	–	220
400.17 K	–	225
401 K	–	230
401.83 K	–	235
402.65 K	–	240
403.46 K	–	245
404.25 K	–	250
405.04 K	–	255
405.79 K	–	260
406.56 K	–	265
407.3 K	–	270
408.03 K	–	275
408.75 K	–	280

Conditions	refractive index
[2]	1.3811

CCOC(=O)CC [ethyl propanoate] + CCCCC
mass density [kg/m3], [3]
Conditions	288.15 K	298.15 K
x1 = 0.0503	643.39	–
x1 = 0.0545	–	634.55
x1 = 0.1013	–	646.47
x1 = 0.1017	656.5	–
x1 = 0.1511	669.25	–
x1 = 0.1538	–	659.85
x1 = 0.2025	682.62	–
x1 = 0.2051	–	673.1
x1 = 0.254	–	685.81
x1 = 0.2551	696.41	–
x1 = 0.3012	708.53	–
x1 = 0.3038	–	698.8
x1 = 0.3525	722.09	–
x1 = 0.3594	–	713.37
x1 = 0.3947	733.28	–
x1 = 0.4062	–	725.7
x1 = 0.4496	747.92	–
x1 = 0.4575	–	739.37
x1 = 0.5009	761.7	–
x1 = 0.5083	–	752.81
x1 = 0.5519	775.33	–
x1 = 0.56	–	766.57
x1 = 0.5987	787.9	–
x1 = 0.606	–	778.84
x1 = 0.6449	800.24	–
x1 = 0.6559	–	792.17
x1 = 0.6974	814.34	–
x1 = 0.7061	–	805.64
x1 = 0.7488	828.17	–
x1 = 0.7498	–	817.26
x1 = 0.7974	841.13	–
x1 = 0.8007	–	830.93
x1 = 0.8477	854.65	–
x1 = 0.8535	–	844.98
x1 = 0.8951	867.4	–
x1 = 0.9054	–	858.85
x1 = 0.9482	881.6	–
x1 = 0.9511	–	871.06
x1 = 1	895.58	884.15

CCCCCCC [heptane]
[1]
Conditions	mass density [kg/m3]	vapor or sublimation pressure [kPa]
288.15 K	688.16	–
298.15 K	679.62	–
308.15 K	670.96	–
318.15 K	662.33	–
328.15 K	653.61	–
371.38 K	–	101.32

Conditions	refractive index
[2]	1.3853

CCCCCCC [heptane] + CCC(=O)OC
[3], x2 = 0
Conditions	mass density [kg/m3]
288.15 K	688.16
298.15 K	679.62
308.15 K	670.96
318.15 K	662.33
328.15 K	653.61

CCCCCCC [heptane] + CCOC(=O)CC
[3], x2 = 0
Conditions	mass density [kg/m3]
288.15 K	688.16
298.15 K	679.62
308.15 K	670.96
318.15 K	662.33
328.15 K	653.61
